The target in this test is T1, human mGlu5 (Homo sapiens, UniProt P41594).
T1 construct: expressed in transfected cells; host or cells: HEK 293A
T1 sequence (P41594 21-1212): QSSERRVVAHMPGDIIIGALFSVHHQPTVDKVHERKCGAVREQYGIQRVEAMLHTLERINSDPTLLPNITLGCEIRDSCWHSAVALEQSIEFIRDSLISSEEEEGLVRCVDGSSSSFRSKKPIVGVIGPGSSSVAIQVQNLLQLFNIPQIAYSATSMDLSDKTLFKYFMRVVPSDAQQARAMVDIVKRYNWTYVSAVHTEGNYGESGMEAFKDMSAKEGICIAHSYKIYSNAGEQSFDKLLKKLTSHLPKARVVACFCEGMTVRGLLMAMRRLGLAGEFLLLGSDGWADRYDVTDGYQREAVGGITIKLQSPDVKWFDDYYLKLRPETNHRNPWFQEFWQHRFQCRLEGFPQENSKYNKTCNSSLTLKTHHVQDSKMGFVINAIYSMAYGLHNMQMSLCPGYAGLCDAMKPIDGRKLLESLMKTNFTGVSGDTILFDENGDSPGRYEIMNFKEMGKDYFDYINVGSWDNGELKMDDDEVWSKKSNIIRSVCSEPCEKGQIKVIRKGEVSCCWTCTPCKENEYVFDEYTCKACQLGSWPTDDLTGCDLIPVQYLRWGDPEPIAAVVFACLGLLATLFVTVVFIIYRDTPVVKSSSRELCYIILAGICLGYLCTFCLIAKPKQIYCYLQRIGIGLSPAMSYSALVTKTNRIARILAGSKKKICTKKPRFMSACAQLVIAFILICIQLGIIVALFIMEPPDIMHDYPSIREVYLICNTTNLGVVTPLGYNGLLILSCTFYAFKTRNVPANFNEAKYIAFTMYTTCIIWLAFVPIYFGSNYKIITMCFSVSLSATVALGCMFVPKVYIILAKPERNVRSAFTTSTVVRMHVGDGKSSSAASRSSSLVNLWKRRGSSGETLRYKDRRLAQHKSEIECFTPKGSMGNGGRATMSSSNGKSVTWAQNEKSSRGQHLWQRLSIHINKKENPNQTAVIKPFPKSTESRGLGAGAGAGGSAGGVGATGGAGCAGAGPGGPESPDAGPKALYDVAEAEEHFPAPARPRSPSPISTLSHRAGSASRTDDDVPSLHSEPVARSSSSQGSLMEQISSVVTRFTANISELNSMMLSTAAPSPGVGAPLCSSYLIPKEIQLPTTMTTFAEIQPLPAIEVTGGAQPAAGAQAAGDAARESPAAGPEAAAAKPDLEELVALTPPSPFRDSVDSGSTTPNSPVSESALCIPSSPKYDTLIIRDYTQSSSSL
Kind of test: mGlu5 negative allosteric modulator Ca2+ flux assay in HEK 293A cells (Table 1). To be noted: HEK 293A cells stably expressing mGlu5; Ca2+ flux (Fluo-4); decrease of glutamate EC80 response; read-out: hmGlu5 NAM IC50. The format is cell-based.
On to `Cc1csc(NC(=O)c2cc(-c3cnccc3C)ccc2F)n1` [Compound 1, 2-fluoro-5-(4-methylpyridin-3-yl)-N-(4-methylthiazol-2-yl)benzamide], for which the IC50 stood at 734 nM.

Consider `Cc1csc(NC(=O)c2cc(-c3cnccc3C)cc(F)c2F)n1` [Compound 2, 2,3-difluoro-5-(4-methylpyridin-3-yl)-N-(4-methylthiazol-2-yl)benzamide], for which the IC50 is 136 nM.

`Cc1csc(NC(=O)c2cc(F)cc(-c3cnccc3C)c2)n1` [Compound 3, 3-fluoro-5-(4-methylpyridin-3-yl)-N-(4-methylthiazol-2-yl)benzamide]: the IC50 turned out to be 540 nM.

In the case of `Cc1cc(C(=O)Nc2cccc(C)n2)cc(-c2cnccc2C)c1` [Compound 4, 3-methyl-N-(6-methylpyridin-2-yl)-5-(4-methylpyridin-3-yl)benzamide], the IC50 stood at 43 nM. In the case of `Cc1cc(C(=O)Nc2ccccn2)cc(-c2cnccc2C)c1` [Compound 5, 3-Methyl-5-(4-methylpyridin-3-yl)-N-(pyridin-2-yl)benzamide] it was 95 nM. In the case of `Cc1cc(C(=O)Nc2ccc(F)cn2)cc(-c2cnccc2C)c1` [Compound 6, N-(5-fluoropyridin-2-yl)-3-methyl-5-(4-methylpyridin-3-yl)benzamide] it was 370 nM.

Regarding `Cc1cc(C(=O)Nc2nc(C)cs2)cc(-c2cnccc2C)c1` [Compound 7, 3-Methyl-5-(4-methylpyridin-3-yl)-N-(4-methylthiazol-2-yl)benzamidecarboxamide], the 50% inhibitory concentration (IC50) was 127 nM.

`Cc1ccncc1-c1cc(F)c(F)c(C(=O)Nc2ccccn2)c1` [Compound 8, 2,3-difluoro-5-(4-methylpyridin-3-yl)-N-(pyridin-2-yl)benzamide]: the IC50 was over 10000 nM. Take `Cc1ccncc1-c1cc(F)c(F)c(C(=O)Nc2ccc(F)cn2)c1` [Compound 9, 2,3-difluoro-N-(5-fluoropyridin-2-yl)-5-(4-methylpyridin-3-yl)benzamide]: the half-inhibitory concentration (IC50) was 1030 nM. In the case of `Cc1cccc(NC(=O)c2cc(-c3cnccc3C)cc(F)c2F)n1` [Compound 10, 2,3-difluoro-N-(6-methylpyridin-2-yl)-5-(4-methylpyridin-3-yl)benzamide] it was 322 nM; in that of `Cc1ccncc1-c1ccc(F)c(C(=O)Nc2ccccn2)c1` [Compound 11, 2-fluoro-5-(4-methylpyridin-3-yl)-N-(pyridin-2-yl)benzamide], 1880 nM. For the molecule `Cc1ccncc1-c1ccc(F)c(C(=O)Nc2ccc(F)cn2)c1` [Compound 12, 2-fluoro-N-(5-fluoropyridin-2-yl)-5-(4-methylpyridin-3-yl)benzamide], the IC50 turned out to be 1060 nM. In the case of `Cc1cccc(NC(=O)c2cc(-c3cnccc3C)ccc2F)n1` [Compound 13, 2-fluoro-N-(6-methylpyridin-2-yl)-5-(4-methylpyridin-3-yl)benzamide] it was 366 nM. In the case of `Cc1csc(NC(=O)c2cc(Cl)cc(-c3cnccc3C)c2)n1` [Compound 14, 3-chloro-5-(4-methylpyridin-3-yl)-N-(4-methylthiazol-2-yl)benzamide] it was 631 nM; in that of `Cc1ccncc1-c1cc(Cl)cc(C(=O)Nc2ccccn2)c1` [Compound 15, 3-chloro-5-(4-methylpyridin-3-yl)-N-(pyridin-2-yl)benzamide], 328 nM. For the molecule `Cc1cccc(NC(=O)c2cc(Cl)cc(-c3cnccc3C)c2)n1` [Compound 16, 3-chloro-N-(6-methylpyridin-2-yl)-5-(4-methylpyridin-3-yl)benzamide], the half-maximal inhibitory concentration (IC50) amounted to 104 nM.

On to `Cc1ccncc1-c1cc(Cl)cc(C(=O)Nc2ccc(F)cn2)c1` [Compound 17, 3-chloro-N-(5-fluoropyridin-2-yl)-5-(4-methylpyridin-3-yl)benzamide], for which the concentration for half-maximal inhibition (IC50) turned out to be 1860 nM. As to `Cc1csc(NC(=O)c2cc(-c3cnccc3C)cc(C(F)(F)F)c2)n1` [Compound 18, 3-(4-methylpyridin-3-yl)-N-(4-methylthiazol-2-yl)-5-(trifluoromethyl)benzamide], the IC50 was over 10000 nM. For the molecule `Cc1ccncc1-c1cc(C(=O)Nc2ccccn2)cc(C(F)(F)F)c1` [Compound 19, 3-(4-methylpyridin-3-yl)-N-(pyridin-2-yl)-5-(trifluoromethyl)benzamide], the concentration for half-maximal inhibition (IC50) amounted to 2590 nM. In the case of `Cc1cccc(NC(=O)c2cc(-c3cnccc3C)cc(C(F)(F)F)c2)n1` [Compound 20, N-(6-methylpyridin-2-yl)-3-(4-methylpyridin-3-yl)-5-(trifluoromethyl)benzamide] it was 1160 nM; in that of `Cc1ccncc1-c1cc(C(=O)Nc2ccc(F)cn2)cc(C(F)(F)F)c1` [Compound 21, N-(5-fluoropyridin-2-yl)-3-(4-methylpyridin-3-yl)-5-(trifluoromethyl)benzamide], 3370 nM; in that of `Cc1csc(NC(=O)c2cc(C#N)cc(-c3cnccc3C)c2)n1` [Compound 22, 3-cyano-5-(4-methylpyridin-3-yl)-N-(4-methylthiazol-2-yl)benzamide], 198 nM.

With `Cc1ccncc1-c1cc(C#N)cc(C(=O)Nc2ccccn2)c1` [Compound 23, 3-cyano-5-(4-methylpyridin-3-yl)-N-(pyridin-2-yl)benzamide], the IC50 stood at 1210 nM. In the case of `Cc1cccc(NC(=O)c2cc(C#N)cc(-c3cnccc3C)c2)n1` [Compound 24, 3-cyano-N-(6-methylpyridin-2-yl)-5-(4-methylpyridin-3-yl)benzamide] it was 273 nM; in that of `Cc1ccncc1-c1cc(C#N)cc(C(=O)Nc2ccc(F)cn2)c1` [Compound 25, 3-cyano-N-(5-fluoropyridin-2-yl)-5-(4-methylpyridin-3-yl)benzamide], 989 nM.

With `Cc1nn(C)cc1-c1ccc(F)c(C(=O)Nc2ccc(F)cn2)c1` [Compound 26, 5-(1,3-dimethyl-1H-pyrazol-4-yl)-2-fluoro-N-(5-fluoropyridin-2-yl)benzamide], the IC50 is over 10000 nM. In the case of `Cn1cncc1-c1cc(F)cc(C(=O)Nc2ccc(F)cn2)c1` [Compound 27, 3-fluoro-N-(5-fluoropyridin-2-yl)-5-(1-methyl-1H-imidazol-5-yl)benzamide] it was over 10000 nM; in that of `Cc1nn(C)c(C)c1-c1cc(F)cc(C(=O)Nc2ccc(F)cn2)c1` [Compound 28, 3-fluoro-N-(5-fluoropyridin-2-yl)-5-(1,3,5-trimethyl-1H-pyrazol-4-yl)benzamide], over 10000 nM; in that of `Cc1ccncc1-c1cc(C(=O)Nc2ccc(F)cn2)cc(F)c1F` [Compound 29, 3,4-difluoro-N-(5-fluoropyridin-2-yl)-5-(4-methylpyridin-3-yl)benzamide], 2240 nM.

In the case of `Cc1cccc(NC(=O)c2cc(F)c(F)c(-c3cnccc3C)c2)n1` [Compound 30, 3,4-difluoro-N-(6-methylpyridin-2-yl)-5-(4-methylpyridin-3-yl)benzamide], the IC50 amounted to 101 nM. In the case of `Cc1ccncc1-c1cc(C(=O)Nc2ccc(Cl)cn2)cc(F)c1F` [Compound 31, N-(5-chloropyridin-2-yl)-3,4-difluoro-5-(4-methylpyridin-3-yl)benzamide] it was 677 nM; in that of `Cn1nccc1-c1cc(F)c(F)c(C(=O)Nc2ccc(F)cn2)c1` [Compound 32, 2,3-difluoro-N-(5-fluoropyridin-2-yl)-5-(1-methyl-1H-pyrazol-5-yl)benzamide], 4890 nM; in that of `Cc1nn(C)cc1-c1cc(F)c(F)c(C(=O)Nc2ccc(F)cn2)c1` [Compound 33, 5-(1,3-dimethyl-1H-pyrazol-4-yl)-2,3-difluoro-N-(5-fluoropyridin-2-yl)benzamide], 3460 nM. As to `O=C(Nc1ccc(F)cn1)c1cc(-c2cncc(F)c2)cc(F)c1F` [Compound 34, 2,3-difluoro-N-(5-fluoropyridin-2-yl)-5-(5-fluoropyridin-3-yl)benzamide], the 50% inhibitory concentration (IC50) was determined as 161 nM. As to `Cc1ncc(-c2cc(F)c(F)c(C(=O)Nc3ccc(F)cn3)c2)s1` [Compound 35, 2,3-difluoro-N-(5-fluoropyridin-2-yl)-5-(2-methylthiazol-5-yl)benzamide], the half-inhibitory concentration (IC50) amounted to 4170 nM.

With `Cn1nc(C(F)(F)F)cc1-c1cc(F)c(F)c(C(=O)Nc2ccc(F)cn2)c1` [Compound 36, 2,3-difluoro-N-(5-fluoropyridin-2-yl)-5-(1-methyl-3-(trifluoromethyl)-1H-pyrazol-5-yl)benzamide], the IC50 is over 10000 nM. In the case of `Cc1csc(NC(=O)c2cc(-c3cnccc3C)c(F)cc2F)n1` [Compound 37, 2,4-difluoro-5-(4-methylpyridin-3-yl)-N-(4-methylthiazol-2-yl)benzamide], the IC50 worked out at 437 nM. In the case of `Cc1ccncc1-c1cc(C(=O)Nc2ccc(F)cn2)c(F)cc1F` [Compound 38, 2,4-difluoro-N-(5-fluoropyridin-2-yl)-5-(4-methylpyridin-3-yl)benzamide] it was 6420 nM. As to `Cc1ccncc1-c1cc(C(=O)Nc2ccc(Cl)cn2)c(F)cc1F` [Compound 39, N-(5-chloropyridin-2-yl)-2,4-difluoro-5-(4-methylpyridin-3-yl)benzamide], the IC50 turned out to be 974 nM. On to `Cc1csc(NC(=O)c2cc(-c3cncc(F)c3)cc(F)c2F)n1` [Compound 40, 2,3-difluoro-5-(5-fluoropyridin-3-yl)-N-(4-methylthiazol-2-yl)benzamide], for which the half-maximal inhibitory concentration (IC50) came to 93 nM.

Take `O=C(Nc1cccc(Cl)n1)c1cc(-c2cncc(F)c2)cc(F)c1F` [Compound 42, N-(6-chloropyridin-2-yl)-2,3-difluoro-5-(5-fluoropyridin-3-yl)benzamide]: the 50% inhibitory concentration (IC50) came out at 193 nM. Turning to `Cc1cccc(NC(=O)c2cc(F)c(F)c(-c3ccnn3C)c2)n1` [Compound 43, 3,4-difluoro-5-(1-methyl-1H-pyrazol-5-yl)-N-(6-methylpyridin-2-yl)benzamide], the concentration for half-maximal inhibition (IC50) amounted to 4440 nM. In the case of `Cc1cccc(NC(=O)c2cc(F)c(F)c(-c3cc(C(F)(F)F)nn3C)c2)n1` [Compound 44, 3,4-difluoro-5-(1-methyl-3-(trifluoromethyl)-1H-pyrazol-5-yl)-N-(6-methylpyridin-2-yl)benzamide] it was 3510 nM.

(Values after patent US20240390350A1, “PHENYL CORE COMPOUNDS AS MGLU5 NEGATIVE ALLOSTERIC MODULATORS AND METHODS OF MAKING AND USING THE SAME” (Vanderbilt University, priority 2021, published 2024).)
